Reference: US20170334899A1, “AMINO-SUBSTITUTED ISOTHIAZOLES” (Bayer Pharma Aktiengesellschaft, priority 2014, published 2017)
pIC50: −log10 of the molar value.

Tested on: HeLa
Experiment: Proliferation assay (crystal violet), HeLa
Assay type: cell-based
Conditions: HeLa cells; 4 days incubation; crystal violet staining; read-out: IC50 inhibition of proliferation, HeLa
Outline: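 Cells plated at 1000-5000/well with 10% FCS, treated after 24 h with compound at 0.001-10 μM (0.5% DMSO) for 4 days. Glutaraldehyde-fixed, crystal violet-stained, A595 normalised to zero-point plate (0%) and untreated cells (100%); IC50 by 4-parameter fit.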

pIC50 | Compound
6.39 | Cc1nsc(Nc2cnc(C(F)(F)F)cn2)c1C(=O)Nc1ccc(O[C@@H]2CCN(CCC(F)(F)F)C2)nc1 [Example 423, 3-Methyl-5-{[5-(trifluoromethyl)pyrazin-2-yl]amino}-N-(6-{[(3R)-1-(3,3,3-trifluoropropyl)pyrrolidin-3-yl]oxy}pyridin-3-yl)-1,2-thiazole-4-carboxamide]

Same assay, conditions: Homo sapiens, HeLa, 96 h, HeLa cells; 4 days incubation; crystal violet staining; read-out: IC50 inhibition of proliferation, HeLa

Compound | pIC50
Cc1nsc(Nc2cnc3ccccc3n2)c1C(=O)Nc1ccc(C(=O)NC2CN(C(=O)OC(C)(C)C)CC(F)(F)C2)cc1 (stereo not drawn) [Example 158, tert-butyl 3,3-difluoro-5-{[4-({[3-methyl-5-(quinoxalin-2-ylamino)-1,2-thiazol-4-yl]carbonyl}amino)benzoyl]amino} piperidine-1-carboxylate] | 5.49
Cc1nsc(Nc2cnc3ccccc3n2)c1C(=O)Nc1ccc(S(C)(=O)=O)cc1 [Example 115, 3-Methyl-N-[4-(methylsulfonyl)phenyl]-5-(quinoxalin-2-ylamino)-1,2-thiazole-4-carboxamide] | 5.36
Cc1nsc(Nc2ccc(C#N)cn2)c1C(=O)Nc1ccc(NC2CCCN(C(=O)OC(C)(C)C)C2)nc1 (stereo not drawn) [Example 171, tert-butyt 3-({5-[({5-[(5-cyanopyridin-2-yl)amino]-3-methyl-1,2-thiazol-4-yl}carbonyl)amino]pyridin-2-yl}amino)piperidine-1-carboxylate] | 5.21
Cc1nsc(Nc2cncc(C(F)(F)F)n2)c1C(=O)Nc1ccc(F)c(OC2CCN(C(=O)OC(C)(C)C)CC2)c1 [Example 168, tert-butyl 4-(2-fluoro-5-{[(3-methyl-5-{[6-(trifluoromethyl)pyrazin-2-yl]amino}-1,2-thiazol-4-yl)carbonyl]amino}phenoxy)piperidine-1-carboxylate] | 6.04
Cc1nsc(Nc2ccc(C#N)cn2)c1C(=O)Nc1cccc(S(C)(=O)=O)c1 [Example 150, 5-[(5-cyanopyridin-2-yl)amino]-3-methyl-N-[3-(methylsulfonyl)phenyl]-1,2-thiazole-4-carboxamide] | 5.55
Cc1nsc(Nc2cnc3cc(F)ccc3n2)c1C(=O)Nc1ccc(S(N)(=O)=O)cc1 [Example 149, 5-[(6-fluoroquinoxalin-2-yl)amino]-3-methyl-N-(4-sulfamoylphenyl)-1,2-thiazole-4-carboxamide] | < 5.00
Cc1nsc(Nc2cnc3ccccc3n2)c1C(=O)Nc1cccc(-c2nnc(C(C)(C)C)o2)c1 [Example 107, N-[3-(5-tert-Butyl-1,3,4-oxadiazol-2-yl)phenyl]-3-methyl-5-(quinoxalin-2-ylamino)-1,2-thiazole-4-carboxamide] | 5.52

Now from value to molecule:

pIC50 | Compound
6.48 | Cc1nsc(Nc2cnc(C(F)(F)F)cn2)c1C(=O)Nc1ccc(OC2CCN(CCF)CC2)c(F)c1 [Example 162, N-(3-fluoro-4-{[1-(2-fluoroethyl)piperidin-4-yl]oxy}phenyl)-3-methyl-5-{[5-(trifluoromethyl)pyrazin-2-yl]amino}-1,2-thiazole-4-carboxamide]
6.55 | Cc1nsc(Nc2cnc(C(F)(F)F)cn2)c1C(=O)Nc1ccc(OCC2CCN(CC(F)F)C2)nc1 (stereo not drawn) [Example 122, N-(6-{[1-(2,2-difluoroethyl)pyrrolidin-3-yl]methoxy}pyridin-3-yl)-3-methyl-5-{[5-(trifluoromethyl)pyrazin-2-yl]amino}-1,2-thiazole-4-carboxamide]
6.66 | CCCN1CC[C@@H](Oc2ccc(NC(=O)c3c(C)nsc3Nc3cnc(C(F)(F)F)cn3)cn2)[C@@H](F)C1 [Example 140, N-(6-{[(3S,4R)-3-fluoro-1-propylpiperidin-4-yl]oxy}pyridin-3-yl)-3-methyl-5-{[5-(trifluoromethyl)pyrazin-2-yl]amino}-1,2-thiazole-4-carboxamide]
6.80 | Cc1nsc(Nc2cnc(C(F)(F)F)cn2)c1C(=O)Nc1ccc(OC2CCN(CC(F)(F)F)CC2)c(F)c1 [Example 163, N-(3-fluoro-4-{[1-(2,2,2-trifluoroethyl)piperidin-4-yl]oxy}phenyl)-3-methyl-5-{[5-(trifluoromethyl)pyrazin-2-yl]amino}-1,2-thiazole-4-carboxamide]
